Drawing on US9233136B2, “4-amino-4-oxobutanoyl peptides as inhibitors of viral replication” (Achillion Pharmaceuticals, Inc., priority 2006, dated 2016), this text covers EC50 for 3 compounds.

What is called EC50 is the concentration at which the effect is half-maximal. Read a low EC50 as a more potent agent.

The assay deals with Hepatitis C replicon in Huh-7 cells. Briefly: HCV replicon replication assay (NPT ELISA). The assay is classed as cell-based. To be noted: Hepatitis C virus, Huh-7, 72 h. How it is done:
Compounds claimed herein are tested for the ability to inhibit viral replication of the Hepatitis C replicon in cultured cells in which the HCV replicon construct has been incorporated. The HCV replicon system was described by Bartenschlager, et. al (Science, 285, pp. 110-113 (1999)). The replicon system is predictive of in vivo anti-HCV activity; compounds that are active in humans uniformly evidence activity in the replicon assay.
In this assay HCV replicon containing cells are treated with different concentrations of the test compound to ascertain the ability of the test compound to suppress replication of the HCV replicon. As a positive control, HCV replicon-containing cells are treated with different concentrations of interferon alpha, a known inhibitor of HCV replication. The replicon assay system includes Neomycin Phosphotransferase (NPT) as a component of the replicon itself in order to detect the transcription of replicon gene products in the host cell. Cells in which the HCV replicon is actively replicating have high levels of NPT; the level of NPT is proportional to HCV replication. […] The NPT level of each sample is measured using a captured ELISA.
A protocol for testing compounds for the ability to inhibit viral replication of the Hepatitis C replicon cultured cells in which the replicon construct has been incorporated, follows.
The HCV replicon contains, 5′-3′, the HCV-IRES, the neomycin phosphotransferase (neo) gene, the IRES of encephalomyocarditis virus, which directs translation of HCV sequences NS3 to NS5B, and the 3′-NTR. The sequence of the HCV replicon has been deposited in GenBank (Accession no. AJ242652).
The replicon is transfected into Huh-7 cells using standard methods such as electroporation.
The cells are then seeded onto 96-well plates at a density of 6000-7500 cells/100 microliters/well (6-7.5×10^5 cells/10 ml/plate). The plates are then incubated at 37° C. in a 5% CO2 incubator.
HCV replicon-containing cells are rinsed with once PBS once; 2 mls of trypsin are then added. Cells are incubated at 37° C. in a 5% CO2 incubator for 3-5 minutes. 10 mls of complete medium is added to stop the reaction. Cells are blown gently, put into a 15 ml tube, and spun at 1200 rpm for four minutes. The trypsin/medium solution is removed and 5 mls of medium (500 ml DMEM (high glucose)) from BRL catalog #12430-054; 50 mls 10% FBS, 5% Geneticin G418 (50 mg/ml, BRL catalog #10131-035), 5 ml MEM non-essential amino acids (100×BRL #11140-050) and 5 ml pen-strep (BRL #15140-148) is added. The cells and media are mixed carefully
Cells are plated with screening medium (500 ml DMEM (BRL #21063-029), 50 ml FBS (BRL #10082-147) and 5 ml MEM non-essential amino acid (BRL #11140-050) at 6000-7500 fcells/100 μl/well of 96 well plate (6-7.5×10^5 cells/10 ml/plate). Plates are placed into 37° C. 5% CO2 incubator overnight.
The following morning, drugs (test compounds or interferon alpha) are diluted in 96 well U bottom plates with media or DMSO/media, depending on the final concentration chosen for screening. Generally for 6 concentrations of each test compounds ranging from 10 micromolar to 0.03 micromolar are applied. 100 μl of the test compound dilution is placed in wells of the 96 well plate containing the HCV replicon cells. Media without drug is added to some wells as a negative controls. DMSO is known to affect cell growth. Therefore, if drugs diluted in DMSO are used, all wells, including negative control (media only) and positive control (interferon alpha) wells, must contain the same concentration of DMSO, for single dose screening. The plates are incubated at 37° C. in a humidified 5% CO2 environment for three days.
On day four, the NTPII assay is quantitated. The medium is poured from the plates and the plates are washed once in 200 μl of PBS. The PBS is then decanted and the plates tapped in a paper towel to remove any remaining PBS. […]

The compound `C=CC1CC1(NC(=O)[C@@H]1C[C@@H](Oc2cc(-c3ccccc3)nc3cc(OC)ccc23)CN1C(=O)[C@@H](CC(=O)N1CCC(CNC(=O)OC(C)(C)C)CC1)C(C)(C)C)C(=O)O` (stereo partly drawn) [Compound 46, 1-((2S,4R)-1-((S)-4-(4-((tert-butoxycarbonylamino)methyl)piperidin-1-yl)-2-tert-butyl-4-oxobutanoyl)-4-(7-methoxy-2-phenylquinolin-4-yloxy)pyrrolidine-2-carboxamido)-2-vinylcyclopropanecarboxylic acid] displayed an EC50 above 10 µM. The value for `COc1cc(O[C@@H]2C[C@H]3C(=O)N[C@]4(C(=O)O)C[C@H]4/C=C\CCCCC[C@H](CC(=O)N4CCCCC4)C(=O)N3C2)c2ccc(-c3ccccc3)nc2c1` [Compound 52, (2R,6R,13aS,14aR,16aS,Z)-2-(7-methoxy-2-phenylquinolin-4-yloxy)-5,16-dioxo-6-(2-oxo-2-(piperidin-1-yl)ethyl)-1,2,3,5,6,7,8,9,10,11,13a,14,14a,15,16,16a-hexahydrocyclopropa[e]pyrrolo[1,2-a] [1,4]diazacyclopentadecine-14a-carboxylic acid] was above 10 µM. The same measure for `C=CC1CC1(NC(=O)[C@@H]1C[C@@H](Oc2cc(-c3ccccc3)nc3cc(OC)ccc23)CN1C(=O)[C@@H](CC(=O)N1CCCCC1C(N)=O)C(C)(C)C)C(=O)OCC` (stereo partly drawn) [Compound 45, ethyl 1-((2S,4R)-1-((2S)-2-tert-butyl-4-(2-carbamoylpiperidin-1-yl)-4-oxobutanoyl)-4-(7-methoxy-2-phenylquinolin-4-yloxy)pyrrolidine-2-carboxamido)-2-vinylcyclopropanecarboxylate]: 1 to 10 µM.
